According to ChEMBL document CHEMBL1147541, “Synthesis of fluorinated cyclopentenyladenine as potent inhibitor of S-adenosylhomocysteine hydrolase” (Bioorg Med Chem Lett, 2004):

Target: Adenosylhomocysteinase (Homo sapiens, UniProt P23526)
Test: In vitro inhibitory activity against recombinant S-adenosyl-L-homocysteine hydrolase obtained from human placenta

Sequence of Adenosylhomocysteinase (P23526 whole entry): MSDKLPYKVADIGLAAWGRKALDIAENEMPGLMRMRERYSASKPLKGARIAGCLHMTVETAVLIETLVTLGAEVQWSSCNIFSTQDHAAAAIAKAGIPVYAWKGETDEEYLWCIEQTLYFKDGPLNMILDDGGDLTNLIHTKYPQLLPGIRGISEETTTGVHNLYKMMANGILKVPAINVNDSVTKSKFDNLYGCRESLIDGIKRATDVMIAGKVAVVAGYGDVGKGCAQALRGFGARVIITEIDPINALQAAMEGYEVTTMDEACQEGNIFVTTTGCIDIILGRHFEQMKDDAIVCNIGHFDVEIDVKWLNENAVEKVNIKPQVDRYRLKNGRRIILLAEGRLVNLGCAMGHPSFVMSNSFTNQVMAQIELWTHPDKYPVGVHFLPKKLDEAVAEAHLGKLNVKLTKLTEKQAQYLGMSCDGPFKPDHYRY

| IC50 | SMILES |
| --- | --- |
| 0.89 µM | Nc1ncnc2c1ncn2[C@@H]1C=C(CO)[C@@H](O)[C@H]1O [NEOPLANOCIN A] |
| 8.7 µM | Nc1ncnc2c1ncn2[C@@H]1C=C[C@@H](O)[C@H]1O |
| 0.47 µM | Nc1ncnc2c1ncn2[C@@H]1C(F)=C(CO)[C@@H](O)[C@H]1O [FLUORO-NEPLANOCIN A] |
| 8.9 µM | Nc1ncnc2c1ncn2[C@@H]1C(F)=C[C@@H](O)[C@H]1O |
